Measured values: patent US9078874B2, “Composition and method for treating cognitive impairments in down syndrom subjects” (Centre National De La Recherche Scientifique—CNRS, priority 2009, dated 2015)

Columns and labels:
euploid and Ts65Dn mice [1] = test: Convulsant effects after a single intraperitoneal injection; assay type: in vivo; details: 50 mg/kg i.p., observed 20 min
Procedure: The convulsant action of the α5IA or beta CCM was evaluated after a single intraperitoneal injection of 50 or 3 mg/Kg of α5IA or beta CCM, respectively. The 50 mg/Kg dose of α5IA corresponded to 10 times the dose with promnesiant effects and 10 times the active dose in the object recognition test (5 mg/Kg)
The proconvulsant action of the α5IA was measured after injection of a subconvulsive dose of pentylenetetrazole. Mice were injected with either vehicle or the α5IA (50 mg/kg i.p) and 20 min later they received an intraperitoneal injection of 45 mg/kg of pentylenetetrazole. […] Six to 7 mice were used for each condition. The latency to the first myoclonic jerk episode and the convulsion grade were recorded during a 1200-s period of observation. Four grades were empirically determined: Grade 0: no effect; grade 1: tail up and curved; grade 2: reversed tail and convulsive shivers; grade 3: myoclonic convulsions.
We then tested the proconvulsant effect of α5IA by injecting it (50 mg/kg) 20 min before a sub-convulsant dose of pentylenetetrazol (45 mg/kg) that induces myoclonic convulsions in about 50% of mice.

mice = test: Anatomopathology after chronic treatment; assay type: in vivo; details: 5 mg/kg, 5 injections/week for 5 weeks
Procedure: FIG. 8 depicts results from a histological lesion study of α5IA after chronic treatment. Following chronic treatment with α5IA (5 mg/kg; 5 injections/week for 5 weeks), different organs were ablated and processed for routine histopathological examination. […] The same negative findings were observed following Periodic acid-Schiff staining of the tissues (not illustrated). […] The size and distribution of urine crystals (not illustrated) appeared to be very similar in the different groups. The scale bar represents 100 μm.
Mice treated for 2 weeks with α5IA and tested in the elevated plus maze were further treated for another 3 weeks. On the last day of treatment, urine samples were collected 2 hours after α5IA or placebo i.p. administration. Urine was stored at −20° C. before analysis. The day after, mice were injected i.p. with an overdose of sodium pentobarbital. Deeply anaesthetized mice received a PBS flush by means of an intracardiac perfusion. For anatomo-pathological examination, 3 additional euploid non-injected mice were also sacrificed. Liver, kidney, brain and spleen were dissected and fixed in a 10% formalin solution. Tissues were then paraffin-embedded and cut using a microtome (5 μm thick sections) before being processed for routine histopathological evaluation (hematein-eosin and Periodic acid-Schiff stainings).

euploid and Ts65Dn mice [2] = test: Novel object recognition (NOR) task; assay type: in vivo
Procedure: The testing protocol is a variant of the testing method according to Fernandez et al. 2007. The Object recognition protocol used to study learning and memory was performed on a 10 minutes period between the first presentation of the objects and the change of one object. Euploid and Ts65Dn mice were tested with or without α5IA treatment. The apparatus consisted of a black square arena (50×50 cm) located in a room under weak controlled luminosity (4-6 Lux) and constant 60 dB white noise. The first day, all mice (16 euploid and 16 Ts65Dn mice) were handled by the experimenter in the animal facility 2×3 min to familiarize them with human contact. On day 2, mice were placed for 20 min in the empty arena for getting used to the apparatus and test room. On day 3, four identical objects were placed symmetrically in the corners of the arena, 14 cm from the side walls. […]
During all open field sessions, mice were monitored using a videotracking system (Any-Maze™). Object exploration was manually scored with an ethological keyboard and defined as the orientation of the nose to the object at a distance<6 cm. […]
For the retention phase, the percent of time exploring familiar vs. novel objects was calculated to assess memory performance (a score of 50% corresponding to equal exploration times of the two objects indicated no object memory). […]
Discrimination ratio was calculated using the formula: […]

fos protein = test: Cerebral fos immunoreactivity after object recognition acquisition; assay type: in vivo, mice; details: 5 mg/kg i.p.
Procedure: The mechanism of action of α5IA was investigated by quantifying neuronal activity by measuring production of fos protein in mice subjected to an object recognition task (exploration of a new environment).
The protocol that was used involved treating mice (placebo or drug). 30 minutes later, the mice were subjected to exploring a new environment, a situation in which the animal acquires and stores information spontaneously. This behavioral stimulation activates c-fos gene, and the expression product of this gene (the Fos protein) is then detected by immunohistochemistry and quantified using dedicated image analysis software. […]
Image analysis was performed as follows: regions of interest (ROIs) were photographed using an Olympus BX61 microscope (x10 objective) and fos immunostaining was quantified using a dedicated image processing software which automatically calculated the proportion of fos-stained tissue (p=stained area/total area), providing an unbiased stereological measurement of fos immunoreactivity. Four ROIs were analyzed: posterior cingulate cortex, perirhinal cortex, dentate gyms and CA1 field of the hippocampus. Each ROI was sampled on several serial sections and results were then averaged to give a reliable quantitative evaluation of local fos immunostaining.

Cc1cc(-c2nnc3c4ccccc4c(OCc4cn(C)nn4)nn23)no1 [α5IA, 3-(5-methylisoxazol-3-yl)-6-[(1-methyl-1,2,3-triazol-4-yl)methyloxy]-1,2,4-triazolo[3,4-a]phthalazine]
Convulsant mice rate (euploid and Ts65Dn mice [1]; Euploids): 0/6
Convulsant mice rate (euploid and Ts65Dn mice [1]; Ts65Dn): 0/7
abnormal crystals in brain, hepatic and renal tissues under polarized light (mice): lack of abnormal crystals
histological lesions (mice; liver, kidney, brain): did not induce any histological lesions
object recognition performance compared to wild-type mice receiving a placebo (euploid and Ts65Dn mice [2]; Ts65Dn mice): above-normal object recognition performance
recognition performance (euploid and Ts65Dn mice [2]; i.p. 5 mg/kg, 30 min before acquisition, both euploid and Ts65Dn mice): largely improved their recognition performance
fos immunoreactivity relative to placebo-treated littermates (fos protein; all brain regions sampled, except the dentate gyrus): significant increase of fos
neuronal activity (fos) in the dentate gyrus (fos protein; dentate gyrus): not significantly affected
